From ChEMBL document CHEMBL5696442, “Discovery of type II inhibitors of TGFβ-activated kinase 1 (TAK1) and mitogen-activated protein kinase kinase kinase kinase 2 (MAP4K2)” (J Med Chem, 2015)
Activity calls are given as the source filed them. No cut-off for these calls is given here.

Key:
[1] = target: Phosphatidylinositol 4-kinase beta (Homo sapiens) (UniProt Q9UBF8); experiment: Inhibition of PI4KB ATP labeling site harbouring VPHTQAVVLNSKDKAPYLIYVEVLECENFDTTSVPARIPENR in human Huh-7 cell lysate at 1 uM by KiNativ Profiling analysis relative to control; type: subcellular
[2] = target: T1, EKC/KEOPS complex subunit TP53RK (Homo sapiens) (UniProt Q96S44); experiment: Inhibition of PRPK ATP Loop labeling site in human Huh-7 cells at 1 uM by KiNativ Profiling analysis relative to control; type: cell-based
T1 sequence (whole entry): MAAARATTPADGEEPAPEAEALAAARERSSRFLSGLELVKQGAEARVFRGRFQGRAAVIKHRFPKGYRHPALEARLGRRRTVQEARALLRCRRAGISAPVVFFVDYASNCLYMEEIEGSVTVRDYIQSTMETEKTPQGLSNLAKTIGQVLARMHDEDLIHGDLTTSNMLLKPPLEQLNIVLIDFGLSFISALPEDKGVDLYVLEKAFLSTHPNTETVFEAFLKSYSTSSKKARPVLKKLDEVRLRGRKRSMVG

[3] = target: Proto-oncogene tyrosine-protein kinase ROS (Homo sapiens) (UniProt P08922); experiment: Inhibition of ROS1 (unknown origin) at 1 uM by Ambit Kinomescan binding assay relative to control
[4] = target: Serine/threonine-protein kinase TNNI3K (Homo sapiens) (UniProt Q59H18); experiment: Inhibition of TNNI3K (unknown origin) at 1 uM by Ambit Kinomescan binding assay relative to control
[5] = target: Serine/threonine-protein kinase 24 (Homo sapiens) (UniProt Q9Y6E0); experiment: Inhibition of MST3 ACT labeling site in human A-375 cells at 0.05 uM by KiNativ Profiling analysis relative to control; type: cell-based
[6] = target: Serine/threonine-protein kinase 38 (Homo sapiens) (UniProt Q15208); experiment: Inhibition of NDR1 Lys1 labeling site in human A-375 cells at 0.05 uM by KiNativ Profiling analysis relative to control; type: cell-based
[7] = target: Homeodomain-interacting protein kinase 3 (Homo sapiens) (UniProt Q9H422); experiment: Inhibition of HIPK3 (unknown origin) at 1 uM by Ambit Kinomescan binding assay relative to control; values are per cent of control
[8] = target: T2, Inhibitor of nuclear factor kappa-B kinase subunit alpha (Homo sapiens) (UniProt O15111); experiment: Inhibition of IKK-alpha (unknown origin) at 1 uM by Ambit Kinomescan binding assay relative to control; values are per cent of control
T2 sequence (whole entry): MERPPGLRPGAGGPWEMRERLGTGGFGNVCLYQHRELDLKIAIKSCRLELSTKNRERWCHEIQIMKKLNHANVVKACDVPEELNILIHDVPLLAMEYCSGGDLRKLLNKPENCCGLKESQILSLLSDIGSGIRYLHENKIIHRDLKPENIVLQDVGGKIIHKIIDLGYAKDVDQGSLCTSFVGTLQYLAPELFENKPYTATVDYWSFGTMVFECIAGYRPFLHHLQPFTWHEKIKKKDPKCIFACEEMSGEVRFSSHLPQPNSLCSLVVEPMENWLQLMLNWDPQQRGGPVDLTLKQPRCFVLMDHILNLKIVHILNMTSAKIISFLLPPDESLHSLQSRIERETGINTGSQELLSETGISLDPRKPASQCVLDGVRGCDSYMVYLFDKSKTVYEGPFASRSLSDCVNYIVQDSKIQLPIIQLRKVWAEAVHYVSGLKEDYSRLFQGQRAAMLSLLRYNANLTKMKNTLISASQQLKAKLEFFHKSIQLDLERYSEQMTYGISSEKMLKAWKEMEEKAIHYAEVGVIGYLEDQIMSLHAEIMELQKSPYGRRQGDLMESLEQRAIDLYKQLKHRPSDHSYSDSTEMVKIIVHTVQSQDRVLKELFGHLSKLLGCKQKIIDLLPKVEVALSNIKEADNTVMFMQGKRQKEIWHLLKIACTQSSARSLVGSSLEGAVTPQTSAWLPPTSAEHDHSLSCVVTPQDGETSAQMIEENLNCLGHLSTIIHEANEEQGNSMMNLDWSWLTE

[9] = tested on: Serine/threonine-protein kinase B-raf (Homo sapiens), P15056 [V600E]; experiment: Inhibition of BRAF V600E mutant (unknown origin) at 10 uM by Ambit Kinomescan binding assay relative to control
[10] = target: Dual specificity protein kinase CLK2 (Homo sapiens) (UniProt P49760); experiment: Inhibition of CLK2 (unknown origin) at 10 uM by Ambit Kinomescan binding assay
[11] = target: Serine/threonine-protein kinase 25 (Homo sapiens) (UniProt O00506); experiment: Inhibition of YSK1 (unknown origin) at 10 uM by Ambit Kinomescan binding assay
[12] = target: Dual specificity mitogen-activated protein kinase kinase 1 (Homo sapiens) (UniProt Q02750); experiment: Inhibition of MAP2K1 Lys1 labeling site in human A-375 cells at 5 uM by KiNativ Profiling analysis relative to control; type: cell-based
[13] = target: T3, Interleukin-1 receptor-associated kinase 4 (Homo sapiens) (UniProt Q9NWZ3); experiment: Inhibition of IRAK4 K2 labeling site in human Huh-7 cells at 1 uM by KiNativ Profiling analysis relative to control; type: cell-based
T3 sequence (whole entry): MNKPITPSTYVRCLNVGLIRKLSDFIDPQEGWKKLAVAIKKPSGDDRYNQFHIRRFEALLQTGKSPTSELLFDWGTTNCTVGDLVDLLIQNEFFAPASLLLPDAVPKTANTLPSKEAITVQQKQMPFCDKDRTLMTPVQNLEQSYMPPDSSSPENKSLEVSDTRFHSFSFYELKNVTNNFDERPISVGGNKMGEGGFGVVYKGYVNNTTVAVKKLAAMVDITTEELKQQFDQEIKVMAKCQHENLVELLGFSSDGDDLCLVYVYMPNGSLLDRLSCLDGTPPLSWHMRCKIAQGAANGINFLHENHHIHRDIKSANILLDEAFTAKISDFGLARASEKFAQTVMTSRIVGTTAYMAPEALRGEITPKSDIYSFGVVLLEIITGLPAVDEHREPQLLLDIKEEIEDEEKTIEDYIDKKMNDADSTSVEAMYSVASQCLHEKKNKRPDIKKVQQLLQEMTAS

Proto-oncogene tyrosine-protein kinase ROS (Homo sapiens), sequence (P08922 whole entry): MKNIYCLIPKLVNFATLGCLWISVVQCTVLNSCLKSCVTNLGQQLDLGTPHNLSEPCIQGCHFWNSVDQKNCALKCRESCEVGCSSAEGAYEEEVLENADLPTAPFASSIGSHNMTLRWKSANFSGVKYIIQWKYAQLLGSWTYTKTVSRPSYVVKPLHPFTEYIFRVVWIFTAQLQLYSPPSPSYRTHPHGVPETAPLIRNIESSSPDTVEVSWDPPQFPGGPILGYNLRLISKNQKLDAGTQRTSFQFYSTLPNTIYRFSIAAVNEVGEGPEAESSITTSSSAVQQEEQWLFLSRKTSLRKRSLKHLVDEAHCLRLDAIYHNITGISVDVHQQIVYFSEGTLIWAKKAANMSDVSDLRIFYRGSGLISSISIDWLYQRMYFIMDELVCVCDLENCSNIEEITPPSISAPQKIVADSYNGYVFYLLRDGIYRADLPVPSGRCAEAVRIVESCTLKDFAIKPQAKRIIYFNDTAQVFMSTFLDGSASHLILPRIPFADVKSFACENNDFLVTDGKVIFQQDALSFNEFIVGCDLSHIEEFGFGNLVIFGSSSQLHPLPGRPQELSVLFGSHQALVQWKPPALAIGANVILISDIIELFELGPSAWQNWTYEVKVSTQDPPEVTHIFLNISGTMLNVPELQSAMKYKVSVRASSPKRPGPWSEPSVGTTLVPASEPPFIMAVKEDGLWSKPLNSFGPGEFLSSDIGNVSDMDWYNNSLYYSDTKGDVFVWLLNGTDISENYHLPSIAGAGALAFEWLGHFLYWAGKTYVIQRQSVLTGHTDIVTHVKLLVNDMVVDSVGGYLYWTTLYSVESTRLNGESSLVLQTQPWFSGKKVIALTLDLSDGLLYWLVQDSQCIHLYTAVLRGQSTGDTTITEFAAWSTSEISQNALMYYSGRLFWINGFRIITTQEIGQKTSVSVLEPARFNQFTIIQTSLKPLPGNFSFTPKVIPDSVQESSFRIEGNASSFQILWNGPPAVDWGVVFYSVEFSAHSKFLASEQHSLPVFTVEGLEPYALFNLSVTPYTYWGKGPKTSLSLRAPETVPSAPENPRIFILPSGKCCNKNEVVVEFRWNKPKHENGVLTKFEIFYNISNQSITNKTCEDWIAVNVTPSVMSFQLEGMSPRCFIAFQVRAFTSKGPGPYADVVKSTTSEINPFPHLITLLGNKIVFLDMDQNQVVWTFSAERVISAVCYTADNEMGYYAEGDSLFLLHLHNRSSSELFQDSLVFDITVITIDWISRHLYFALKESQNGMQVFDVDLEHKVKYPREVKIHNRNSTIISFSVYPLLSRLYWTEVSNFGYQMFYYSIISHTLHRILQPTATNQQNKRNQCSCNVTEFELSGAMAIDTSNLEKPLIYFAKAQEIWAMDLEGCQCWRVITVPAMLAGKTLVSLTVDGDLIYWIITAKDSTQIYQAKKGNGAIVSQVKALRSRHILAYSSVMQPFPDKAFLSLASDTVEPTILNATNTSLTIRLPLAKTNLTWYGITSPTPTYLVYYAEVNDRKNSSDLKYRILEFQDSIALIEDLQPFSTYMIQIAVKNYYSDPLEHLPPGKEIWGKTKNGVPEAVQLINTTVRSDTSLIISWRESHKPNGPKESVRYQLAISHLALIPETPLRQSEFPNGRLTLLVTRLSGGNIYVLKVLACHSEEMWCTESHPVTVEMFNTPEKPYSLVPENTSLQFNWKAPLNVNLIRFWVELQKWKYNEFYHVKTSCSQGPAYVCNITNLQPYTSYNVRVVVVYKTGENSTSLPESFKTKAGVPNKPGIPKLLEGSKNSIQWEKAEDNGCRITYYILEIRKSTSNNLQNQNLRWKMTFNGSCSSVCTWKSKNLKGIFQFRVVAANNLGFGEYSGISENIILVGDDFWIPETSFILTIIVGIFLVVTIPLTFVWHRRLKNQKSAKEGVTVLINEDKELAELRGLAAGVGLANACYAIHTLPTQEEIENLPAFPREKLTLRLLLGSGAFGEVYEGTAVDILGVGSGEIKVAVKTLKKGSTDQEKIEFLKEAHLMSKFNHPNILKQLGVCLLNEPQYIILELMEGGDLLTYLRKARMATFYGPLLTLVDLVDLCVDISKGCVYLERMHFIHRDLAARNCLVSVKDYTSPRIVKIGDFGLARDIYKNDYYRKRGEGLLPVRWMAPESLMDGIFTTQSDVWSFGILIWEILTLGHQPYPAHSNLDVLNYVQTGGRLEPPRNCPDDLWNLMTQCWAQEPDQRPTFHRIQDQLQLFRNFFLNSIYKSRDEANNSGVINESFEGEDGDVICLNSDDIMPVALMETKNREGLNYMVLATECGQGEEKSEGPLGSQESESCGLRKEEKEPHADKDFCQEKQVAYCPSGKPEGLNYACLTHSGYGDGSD
Serine/threonine-protein kinase 25 (Homo sapiens), sequence (O00506 whole entry, looked up): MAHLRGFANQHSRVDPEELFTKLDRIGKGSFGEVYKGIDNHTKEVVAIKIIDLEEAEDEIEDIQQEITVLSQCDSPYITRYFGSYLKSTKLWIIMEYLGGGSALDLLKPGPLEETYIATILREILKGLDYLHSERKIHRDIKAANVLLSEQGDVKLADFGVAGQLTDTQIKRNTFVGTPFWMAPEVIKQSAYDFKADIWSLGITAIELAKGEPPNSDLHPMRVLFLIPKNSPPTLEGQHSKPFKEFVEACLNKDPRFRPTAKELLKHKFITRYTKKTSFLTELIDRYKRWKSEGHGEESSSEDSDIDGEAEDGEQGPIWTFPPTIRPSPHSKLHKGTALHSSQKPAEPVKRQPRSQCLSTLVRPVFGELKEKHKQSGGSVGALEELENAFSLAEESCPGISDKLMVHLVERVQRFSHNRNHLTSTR
Dual specificity protein kinase CLK2 (Homo sapiens), sequence (P49760 whole entry, looked up): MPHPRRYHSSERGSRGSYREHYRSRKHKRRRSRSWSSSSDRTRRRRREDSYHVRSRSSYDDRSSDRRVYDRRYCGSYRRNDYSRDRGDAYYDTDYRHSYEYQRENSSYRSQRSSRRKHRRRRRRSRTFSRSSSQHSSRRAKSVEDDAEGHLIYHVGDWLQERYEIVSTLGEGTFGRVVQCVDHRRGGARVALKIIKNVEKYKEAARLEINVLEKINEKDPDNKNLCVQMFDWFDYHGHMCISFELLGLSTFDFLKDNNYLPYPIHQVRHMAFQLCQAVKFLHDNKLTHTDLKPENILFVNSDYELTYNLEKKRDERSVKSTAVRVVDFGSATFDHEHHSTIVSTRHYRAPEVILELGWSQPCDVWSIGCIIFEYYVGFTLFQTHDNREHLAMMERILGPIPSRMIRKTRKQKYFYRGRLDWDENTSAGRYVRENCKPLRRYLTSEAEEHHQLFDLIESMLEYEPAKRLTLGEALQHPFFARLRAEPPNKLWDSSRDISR
Serine/threonine-protein kinase B-raf (Homo sapiens), P15056 [V600E], sequence (P15056 whole entry V600E): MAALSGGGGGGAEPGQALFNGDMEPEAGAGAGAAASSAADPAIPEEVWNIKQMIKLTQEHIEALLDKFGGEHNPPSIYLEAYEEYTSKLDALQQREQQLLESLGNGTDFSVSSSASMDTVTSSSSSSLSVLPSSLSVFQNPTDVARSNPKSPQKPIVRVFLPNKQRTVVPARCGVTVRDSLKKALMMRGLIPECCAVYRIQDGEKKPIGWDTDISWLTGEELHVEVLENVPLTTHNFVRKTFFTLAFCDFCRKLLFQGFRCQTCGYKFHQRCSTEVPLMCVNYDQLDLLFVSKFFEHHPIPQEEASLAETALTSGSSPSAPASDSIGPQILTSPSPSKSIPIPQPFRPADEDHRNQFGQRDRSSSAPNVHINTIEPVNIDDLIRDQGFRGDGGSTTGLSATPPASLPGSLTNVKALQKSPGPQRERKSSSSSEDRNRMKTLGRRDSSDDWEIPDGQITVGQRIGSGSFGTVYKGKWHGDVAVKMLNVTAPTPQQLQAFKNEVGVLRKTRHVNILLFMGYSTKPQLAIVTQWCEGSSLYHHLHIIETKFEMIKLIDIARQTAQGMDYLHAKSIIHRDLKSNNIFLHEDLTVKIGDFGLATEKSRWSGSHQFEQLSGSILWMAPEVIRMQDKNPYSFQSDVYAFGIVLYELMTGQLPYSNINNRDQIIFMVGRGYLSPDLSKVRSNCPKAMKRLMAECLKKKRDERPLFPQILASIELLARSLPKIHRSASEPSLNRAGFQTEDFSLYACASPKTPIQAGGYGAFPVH
Serine/threonine-protein kinase 24 (Homo sapiens), sequence (Q9Y6E0 whole entry, looked up): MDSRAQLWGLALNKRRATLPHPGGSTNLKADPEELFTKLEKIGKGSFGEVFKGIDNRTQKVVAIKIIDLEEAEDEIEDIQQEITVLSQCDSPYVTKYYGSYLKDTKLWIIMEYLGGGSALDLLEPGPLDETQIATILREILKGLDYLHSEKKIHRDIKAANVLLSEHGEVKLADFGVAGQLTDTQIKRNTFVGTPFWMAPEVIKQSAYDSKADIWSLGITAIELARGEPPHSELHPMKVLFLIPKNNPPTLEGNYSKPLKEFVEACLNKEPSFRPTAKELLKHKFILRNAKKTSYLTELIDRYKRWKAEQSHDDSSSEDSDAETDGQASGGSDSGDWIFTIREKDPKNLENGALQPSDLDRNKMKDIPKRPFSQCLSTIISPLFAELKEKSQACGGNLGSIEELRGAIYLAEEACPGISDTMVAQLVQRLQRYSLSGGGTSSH
Serine/threonine-protein kinase 38 (Homo sapiens), sequence (Q15208 2-465 limits assumed): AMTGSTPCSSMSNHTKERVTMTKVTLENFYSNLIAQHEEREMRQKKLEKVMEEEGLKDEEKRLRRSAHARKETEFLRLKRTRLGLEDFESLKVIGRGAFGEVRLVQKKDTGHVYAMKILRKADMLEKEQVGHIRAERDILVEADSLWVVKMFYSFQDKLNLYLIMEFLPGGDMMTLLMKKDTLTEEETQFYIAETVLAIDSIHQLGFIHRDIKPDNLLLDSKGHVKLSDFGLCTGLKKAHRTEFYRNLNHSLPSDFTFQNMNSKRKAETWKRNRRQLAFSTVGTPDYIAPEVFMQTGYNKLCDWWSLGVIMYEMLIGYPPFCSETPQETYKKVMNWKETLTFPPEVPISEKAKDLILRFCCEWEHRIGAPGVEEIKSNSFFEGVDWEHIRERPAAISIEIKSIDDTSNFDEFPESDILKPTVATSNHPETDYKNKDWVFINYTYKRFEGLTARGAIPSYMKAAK

CNc1cc(Oc2cc(C(=O)Nc3cc(N4CCN(C)CC4)cc(C(F)(F)F)c3)ccc2C)ncn1
inhibition [1]: 14.7%
inhibition [2]: 22.9%

CCN1CCN(Cc2ccc(NC(=O)c3ccc(C)c(/C=C/c4cnc5[nH]ccc5c4OC)c3)cc2C(F)(F)F)CC1
inhibition [3]: 100%
inhibition [4]: 5.9%
inhibition [5]: 13.5%
inhibition [6]: 3.2%
residual activity [7]: 80%
residual activity [8]: 2%

CCN1CCN(Cc2ccc(NC(=O)c3ccc(C)c(Oc4ccnc5[nH]ccc45)c3)cc2C(F)(F)F)CC1
inhibition [9]: 4%
inhibition [10]: inactive
inhibition [11]: inactive
inhibition [12]: 1.3%
inhibition [13]: -9.1%
